Laboratory results as given in patent US20240351965A1, “Synthesis and Evaluation of Novel (4-Hydroxyphenyl) Substituted Carbocycles as Potent and Selective Estrogen Receptor Beta Agonists” (Marquette University, priority 2021, published 2024).
Like-named read-outs stand apart in the source and are kept apart here.

Columns and labels:
ERβ [1] = biological target: T1, ERβ (Homo sapiens, UniProt Q92731); assay: TR-FRET ligand binding displacement assay (LanthaScreen)
Target sequence in this assay (Q92731 264-498 limits assumed): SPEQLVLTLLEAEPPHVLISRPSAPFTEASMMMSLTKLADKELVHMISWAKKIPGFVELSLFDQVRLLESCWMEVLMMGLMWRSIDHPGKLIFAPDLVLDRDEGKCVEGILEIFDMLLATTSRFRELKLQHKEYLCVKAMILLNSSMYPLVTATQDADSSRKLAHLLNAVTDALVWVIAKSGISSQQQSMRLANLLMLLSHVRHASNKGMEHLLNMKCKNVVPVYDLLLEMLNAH

ERβ [2] = biological target: T1, ERβ; assay: TR-FRET coactivator binding (recruitment) assay; format: biochemical
Target sequence in this assay (Q92731 264-498 limits assumed): as above

CYP2C9 = biological target: T2, CYP2C9 (Homo sapiens, UniProt P11712); assay: Cytochrome P450 inhibition (P450-Glo), CYP2C9; format: in vitro ADME; details: for IC50: tested up to 62.5 μM
T2 construct: purchased Promega (P450-Glo Screening Systems)
T2 sequence (P11712 whole entry): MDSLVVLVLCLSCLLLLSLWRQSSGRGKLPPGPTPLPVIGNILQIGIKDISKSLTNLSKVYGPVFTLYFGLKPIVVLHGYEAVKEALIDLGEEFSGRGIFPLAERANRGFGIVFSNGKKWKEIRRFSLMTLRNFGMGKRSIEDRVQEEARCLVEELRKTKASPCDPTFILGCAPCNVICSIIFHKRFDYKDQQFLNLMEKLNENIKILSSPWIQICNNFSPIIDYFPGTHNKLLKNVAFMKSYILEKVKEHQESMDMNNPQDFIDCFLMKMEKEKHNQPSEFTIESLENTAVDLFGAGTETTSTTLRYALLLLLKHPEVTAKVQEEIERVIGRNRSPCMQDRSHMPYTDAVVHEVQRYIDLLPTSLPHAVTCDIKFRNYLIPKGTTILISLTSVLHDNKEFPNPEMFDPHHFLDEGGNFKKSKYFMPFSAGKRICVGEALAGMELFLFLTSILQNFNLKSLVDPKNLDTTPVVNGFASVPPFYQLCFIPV
Protocol: (§1) A screen of Cytochrome p450 inhibition was performed using the Promega P450-Glo™ Screening Systems. The Screening Systems' manual instructions were followed for CYP2C9, CYP2D6, or CYP3A4 enzymes with Luciferin-H, Luciferin-ME EGE or Luciferin-PPXE as substrates, respectively. The components of the kits, i.e., membrane enzymes, control enzymes, substrates and potassium phosphate buffer and or TRIS buffer were combined according to the System-manual's recommended final concentrations. Reactions were pre-incubated in white 96-well flat-bottom plates at 37° C. for 10 min before starting reactions with 2×NADPH regeneration buffer. The 96-well plates were incubated according to the recommended times in the linear range for each enzyme/substrate reaction. The reactions were stopped using 2× Luciferin Detection Reagent. After 20 minutes, the luciferase product was detected using a SpectraMax M5 Molecular Devices plate reader on the end-point luminescence setting. Positive control inhibitors for CYP2C9, CYP2D6, and CYP3A4 enzymes were assayed at a final concentration of 10 μM sulfaphenazole, 1 μM quinidine and 5 μM ketoconazole, respectively. Serial dilutions of 5a/b and (±)-11 were assayed at final concentrations of […], 7.812, 3.906, 1.953, 0.977, 0.488 μM. Inhibition data were analyzed using GraphPad Prism® 6 for Windows, ver. 6.07 (Jun. 12, 2015) software. Raw data were normalized against the control enzyme and untreated CYP enzyme means and then analyzed through non-linear regression using log (inhibitor) vs normalized dose-response curves to assess IC50s. Standard deviations were calculated from Best-fit values. Data were normalized to vehicle and positive controls (sulfaphenazole for CYP2C9, quinidine for CYP2D6, and ketoconazole for CYP3A4) and nonlinear square fits of the data were conducted using Prism 6 (GraphPad).

CYP2D6 = biological target: T3, CYP2D6 (Homo sapiens, UniProt P10635); assay: Cytochrome P450 inhibition (P450-Glo), CYP2D6; format: in vitro ADME
T3 construct: purchased Promega (P450-Glo Screening Systems)
T3 sequence (P10635 whole entry): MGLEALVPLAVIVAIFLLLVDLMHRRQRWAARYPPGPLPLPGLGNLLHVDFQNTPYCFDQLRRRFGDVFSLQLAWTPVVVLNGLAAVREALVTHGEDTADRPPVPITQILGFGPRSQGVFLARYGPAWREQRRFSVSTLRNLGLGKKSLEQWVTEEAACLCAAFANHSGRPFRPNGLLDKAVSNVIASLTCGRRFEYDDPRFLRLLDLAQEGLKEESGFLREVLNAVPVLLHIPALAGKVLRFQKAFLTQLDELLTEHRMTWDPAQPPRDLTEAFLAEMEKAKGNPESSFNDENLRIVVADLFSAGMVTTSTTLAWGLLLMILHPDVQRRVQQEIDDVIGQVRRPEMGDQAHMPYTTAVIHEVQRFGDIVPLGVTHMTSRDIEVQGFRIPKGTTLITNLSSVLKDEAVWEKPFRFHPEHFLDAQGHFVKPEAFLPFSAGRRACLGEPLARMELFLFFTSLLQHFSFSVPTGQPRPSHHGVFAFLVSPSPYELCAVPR
Protocol: as §1

CYP3A4 = biological target: T4, CYP3A4 (Homo sapiens, UniProt P08684); assay: Cytochrome P450 inhibition (P450-Glo), CYP3A4; format: in vitro ADME
T4 construct: purchased Promega (P450-Glo Screening Systems)
T4 sequence (P08684 whole entry): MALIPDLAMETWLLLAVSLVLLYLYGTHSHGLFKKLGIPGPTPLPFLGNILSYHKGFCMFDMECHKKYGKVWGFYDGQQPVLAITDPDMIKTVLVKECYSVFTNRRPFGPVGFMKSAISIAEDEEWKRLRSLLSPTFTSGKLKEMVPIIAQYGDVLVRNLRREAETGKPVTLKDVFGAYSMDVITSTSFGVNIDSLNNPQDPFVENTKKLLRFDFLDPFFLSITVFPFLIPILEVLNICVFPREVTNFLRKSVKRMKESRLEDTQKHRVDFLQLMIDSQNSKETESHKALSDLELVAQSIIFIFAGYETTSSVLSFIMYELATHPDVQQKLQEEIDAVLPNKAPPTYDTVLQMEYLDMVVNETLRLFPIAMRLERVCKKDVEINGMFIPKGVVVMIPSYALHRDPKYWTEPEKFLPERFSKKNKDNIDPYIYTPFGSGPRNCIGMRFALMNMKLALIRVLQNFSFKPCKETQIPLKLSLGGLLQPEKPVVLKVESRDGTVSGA
Protocol: as §1

ERβ [3] = biological target: T1, ERβ; details: cited from earlier work
Target sequence in this assay (Q92731 whole entry): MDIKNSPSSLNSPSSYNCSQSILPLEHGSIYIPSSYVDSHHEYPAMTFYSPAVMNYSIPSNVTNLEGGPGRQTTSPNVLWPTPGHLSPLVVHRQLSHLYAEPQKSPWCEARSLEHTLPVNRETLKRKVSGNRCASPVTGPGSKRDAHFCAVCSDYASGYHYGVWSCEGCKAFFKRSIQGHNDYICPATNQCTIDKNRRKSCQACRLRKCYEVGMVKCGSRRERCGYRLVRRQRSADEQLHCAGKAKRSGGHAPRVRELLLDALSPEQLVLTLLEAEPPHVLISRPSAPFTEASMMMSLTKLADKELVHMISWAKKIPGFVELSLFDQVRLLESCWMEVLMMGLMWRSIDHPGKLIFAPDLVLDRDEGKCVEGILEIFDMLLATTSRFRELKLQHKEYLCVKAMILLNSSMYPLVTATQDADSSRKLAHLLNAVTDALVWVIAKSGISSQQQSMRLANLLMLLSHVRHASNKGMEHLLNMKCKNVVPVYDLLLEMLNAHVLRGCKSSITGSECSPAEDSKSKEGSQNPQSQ

[4] = human, probe Luciferin-ME EGE, read-out: CYP2D6 inhibition: not inhibited at concentrations up to (abstract)
[5] = read-out: CYP2D6 inhibition: no inhibition up to
[6] = human, probe Luciferin-PPXE, read-out: CYP3A4 inhibition: not inhibited at concentrations up to (abstract)
[7] = read-out: CYP3A4 inhibition: no inhibition up to

| Compound | IC50 (ERβ [1]) [µM] | IC50 (ERβ [2]) [µM] | CYP2C9 binding in enzyme kinetic inhibition assay (CYP2C9) | IC50 (CYP2C9) [µM] | CYP2D6 binding in enzyme kinetic inhibition assay (CYP2D6) | IC50 (CYP2D6; [4]) [µM] | IC50 (CYP2D6; [5]) [µM] | CYP3A4 binding in enzyme kinetic inhibition assay (CYP3A4) | IC50 (CYP3A4; [6]) [µM] | IC50 (CYP3A4; [7]) [µM] | ERβ selectivity (literature) (ERβ [3]) [fold] | EC50 (ERβ [3]; read-out: EC50 (literature, ERβ agonist)) [µM] |
| --- | --- | --- | --- | --- | --- | --- | --- | --- | --- | --- | --- | --- |
| O=C1CC2(CCC(c3ccc(O)cc3)CC2)C1 [compound 10, 7-(4-Hydroxyphenyl)spiro[3.5]nonan-2-one] | 2.22 ± 2.66 | 1.64 ± 0.301 | – | – | – | – | – | – | – | – | – | – |
| Oc1ccc(C2CCC3(CC2)CC(O)C3)cc1 (racemic) [(±)-11, 7-(4-hydroxyphenyl)spiro[3.5]nonan-2-ol] | – | – | does not bind to any of these CYP450 enzymes with significant activity | > 62.5 | does not bind to any of these CYP450 enzymes with significant activity | > 62.5 | > 62.5 | does not bind to any of these CYP450 enzymes with significant activity | > 62.5 | > 62.5 | – | – |
| OCC12CC3CC(C1)C(c1ccc(O)cc1)C(C3)C2 (stereo not shown) [5a/b, 4-(4-Hydroxyphenyl)tricyclo[3.3.1.1^3,7]decane-1-methanol] | – | – | – | 10 ± 0.5 | weak binding only to CYP2C9 | > 62.5 | > 62.5 | weak binding only to CYP2C9 | > 62.5 | > 62.5 | – | – |
| OCC1CCCC(c2ccc(O)cc2)CC1 (stereo not shown) [ISP163] | – | – | – | – | – | – | – | – | – | – | 318 | 0.033 ± 0.005 |
